Reference: ChEMBL document CHEMBL1201862, “PubChem BioAssay data set” (2004)
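All cell lines were grown in 96-well plates and treated with compound for 48 hours. Abbreviation: GI50, concentration required for 50% inhibition of growth.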 Calls of active or inactive are those of the source. Rule as the data show it: active = GI50 up to about 1.1 µM and inactive = higher.

Tests used:
Assay in all cases: NCI tumour cell line growth inhibition, 48 h
[1] = tested on: SR
[2] = tested on: T47D
[3] = tested on: NCI/ADR-RES
[4] = tested on: Hs-578T
[5] = tested on: NCI-H460
[6] = tested on: SK-MEL-2
[7] = tested on: U-251
[8] = tested on: UO-31
[9] = tested on: SF-268
[10] = tested on: 786-0
[11] = tested on: SNB-19
[12] = tested on: PC-3
[13] = tested on: A498
[14] = tested on: UACC-257
[15] = tested on: MOLT-4
[16] = tested on: EKVX
[17] = tested on: RXF 393
[18] = tested on: MCF7
[19] = tested on: SK-OV-3
[20] = tested on: NCI-H522

Structure (SMILES) | GI50 [1] | GI50 [2] | GI50 [3] | GI50 [4] | GI50 [5] | GI50 [6] | GI50 [7] | GI50 [8] | GI50 [9] | GI50 [10] | GI50 [11] | GI50 [12] | GI50 [13] | GI50 [14] | GI50 [15] | GI50 [16] | GI50 [17] | GI50 [18] | GI50 [19] | GI50 [20]
N#Cc1c2ccc([N+](=O)[O-])cc2c(=O)n2c1sc1ccccc12 | 3.94 µM (inactive) | 14.8 µM (inactive) | 18.4 µM (inactive) | 48 µM (inactive) | 27.5 µM (inactive) | 17.3 µM (inactive) | 14.6 µM (inactive) | 22.6 µM (inactive) | 56.2 µM (inactive) | 24.2 µM (inactive) | 10.5 µM (inactive) | 14.8 µM (inactive) | 13.5 µM (inactive) | 78.5 µM (inactive) | – | – | – | – | – | –
COc1ccc(C2OC[C@H]3O[C@@H](OCc4ccccc4)[C@H](O)[C@@H](O)[C@@H]3O2)cc1 (some centres not stated) | 67.9 µM (inactive) | – | > 100 µM (inactive) | 55.5 µM (inactive) | > 100 µM (inactive) | > 100 µM (inactive) | > 100 µM (inactive) | > 100 µM (inactive) | > 100 µM (inactive) | – | > 100 µM (inactive) | 99.8 µM (inactive) | > 100 µM (inactive) | > 100 µM (inactive) | 41.9 µM (inactive) | 68.5 µM (inactive) | > 100 µM (inactive) | > 100 µM (inactive) | > 100 µM (inactive) | –
CCCNC1=C(C)C(=O)C2=C(C1=O)[C@H](COC(N)=O)[C@]1(OC)[C@@H]3N[C@@H]3CN21 | – | – | > 100 µM (inactive) | – | 0.0661 µM (active) | 9.51 µM (inactive) | 2.48 µM (inactive) | 20.3 µM (inactive) | 4.65 µM (inactive) | – | 2.01 µM (inactive) | – | 2.69 µM (inactive) | 5.55 µM (inactive) | 1.05 µM (active) | 4.3 µM (inactive) | 12 µM (inactive) | 0.0422 µM (active) | 16.6 µM (inactive) | 2.88 µM (inactive)
C[C@@H]1OC(=O)/C(=C\N(C)C)[C@H]2CC(=O)N(CCc3cn(S(=O)(=O)C(F)(F)F)c4ccccc34)C[C@H]12 | – | > 100 µM (inactive) | > 100 µM (inactive) | – | > 100 µM (inactive) | > 100 µM (inactive) | > 100 µM (inactive) | > 100 µM (inactive) | > 100 µM (inactive) | > 100 µM (inactive) | > 100 µM (inactive) | > 100 µM (inactive) | > 100 µM (inactive) | > 100 µM (inactive) | > 100 µM (inactive) | > 100 µM (inactive) | > 100 µM (inactive) | > 100 µM (inactive) | > 100 µM (inactive) | > 100 µM (inactive)
C=C1CC[C@H]2C(=O)OC(c3ccoc3)C[C@]2(C)C/C=C\C=C/1C(=O)OC (some centres not stated) | – | – | 13.2 µM (inactive) | > 25 µM (inactive) | > 25 µM (inactive) | > 25 µM (inactive) | > 25 µM (inactive) | 13.6 µM (inactive) | – | > 25 µM (inactive) | > 25 µM (inactive) | > 25 µM (inactive) | > 25 µM (inactive) | > 25 µM (inactive) | – | > 25 µM (inactive) | > 25 µM (inactive) | > 25 µM (inactive) | > 25 µM (inactive) | –
O=C1/C(=C2/CCCN2)C(c2ccc[nH]2)=NN1c1ccccc1 | – | > 100 µM (inactive) | > 100 µM (inactive) | – | > 100 µM (inactive) | > 100 µM (inactive) | > 100 µM (inactive) | > 100 µM (inactive) | > 100 µM (inactive) | > 100 µM (inactive) | > 100 µM (inactive) | > 100 µM (inactive) | > 100 µM (inactive) | > 100 µM (inactive) | > 100 µM (inactive) | > 100 µM (inactive) | > 100 µM (inactive) | – | > 100 µM (inactive) | > 100 µM (inactive)
CSCCC(NC(=O)C(Cc1ccccc1)NC(=O)CNC(=O)CNC(=O)C(N)Cc1ccc(O)cc1)C(=O)O (configuration not stated) | – | – | > 100 µM (inactive) | – | > 100 µM (inactive) | > 100 µM (inactive) | > 100 µM (inactive) | > 100 µM (inactive) | > 100 µM (inactive) | – | > 100 µM (inactive) | – | > 100 µM (inactive) | > 100 µM (inactive) | > 100 µM (inactive) | > 100 µM (inactive) | > 100 µM (inactive) | > 100 µM (inactive) | > 100 µM (inactive) | > 100 µM (inactive)
COc1ccc(OC(C)C(=O)O)c2c(=O)ccccc12 (configuration not stated) | > 100 µM (inactive) | – | – | – | > 100 µM (inactive) | > 100 µM (inactive) | > 100 µM (inactive) | > 100 µM (inactive) | > 100 µM (inactive) | > 100 µM (inactive) | > 100 µM (inactive) | – | > 100 µM (inactive) | > 100 µM (inactive) | > 100 µM (inactive) | > 100 µM (inactive) | > 100 µM (inactive) | – | > 100 µM (inactive) | > 100 µM (inactive)
N#Cc1ccc(/C=C(/C(=O)c2ccccc2)c2ccccc2)cc1 | 2.62 µM (inactive) | – | – | – | 16.5 µM (inactive) | 15 µM (inactive) | 12.4 µM (inactive) | 14.2 µM (inactive) | 15.2 µM (inactive) | 10.9 µM (inactive) | 19.4 µM (inactive) | – | 17.9 µM (inactive) | 12.4 µM (inactive) | 2.99 µM (inactive) | 18.8 µM (inactive) | 17.8 µM (inactive) | – | 20.5 µM (inactive) | 8.41 µM (inactive)
COc1cc([C@@H]2c3cc4c(cc3[C@@H](/N=C/c3ccc(C(=O)O[C@@H](C(=O)O[C@H]5C[C@@]6(O)[C@@H](OC(=O)c7ccccc7)[C@@H]7[C@]8(OC(C)=O)CO[C@@H]8C[C@H](O)[C@@]7(C)C(=O)[C@H](OC(C)=O)C(=C5C)C6(C)C)[C@@H](NC(=O)c5ccccc5)c5ccccc5)cc3)[C@H]3COC(=O)[C@H]23)OCO4)cc(OC)c1O | < 0.005 µM (active) | – | > 46 µM (inactive) | 0.0459 µM (active) | 0.00929 µM (active) | 0.0335 µM (active) | 0.0154 µM (active) | – | 0.0703 µM (active) | 0.0748 µM (active) | 1.22 µM (inactive) | 0.0138 µM (active) | 0.133 µM (active) | 0.109 µM (active) | 0.018 µM (active) | 5.93 µM (inactive) | 0.0333 µM (active) | 0.0128 µM (active) | 0.0785 µM (active) | 0.0138 µM (active)
COc1cc(C2SCC(=O)N2c2cc(Cl)c(Cl)cc2Cl)cc(OC)c1OC (configuration not stated) | 26.4 µM (inactive) | – | 34.4 µM (inactive) | 99.8 µM (inactive) | 36.3 µM (inactive) | 63 µM (inactive) | 77.8 µM (inactive) | 34.7 µM (inactive) | 90.2 µM (inactive) | 38.2 µM (inactive) | 51.8 µM (inactive) | 62.8 µM (inactive) | 63 µM (inactive) | 36.8 µM (inactive) | 23.9 µM (inactive) | 37.3 µM (inactive) | – | 37.7 µM (inactive) | 40.7 µM (inactive) | 46 µM (inactive)
Cc1ccc(C(C)(C)C[P+](C)(c2ccccc2)c2ccccc2)cc1 | – | – | > 100 µM (inactive) | – | 14 µM (inactive) | 4.21 µM (inactive) | 11.6 µM (inactive) | 20.8 µM (inactive) | 16.9 µM (inactive) | – | 12 µM (inactive) | – | 34.4 µM (inactive) | 3.56 µM (inactive) | 11 µM (inactive) | 38.5 µM (inactive) | 27.5 µM (inactive) | 7.93 µM (inactive) | 22.1 µM (inactive) | 3.4 µM (inactive)
